Experimental data reported in article PMC7170889, “Synthesis and evaluation of designed PKC modulators for enhanced cancer immunotherapy” (Nature Communications, 2020).

Key:
PKCδ-GFP fusion protein = target: T1, PKCδ-GFP fusion protein (Homo sapiens, UniProt Q05655); assay: PKCδ-GFP translocation assay in living CHO-k1 cells (confocal microscopy); type: cell-based, Chinese hamster; settings: for Emax at 0.2 µM: CHO-K1, 200 nM compound; for Emax at 0.2 µM / Emax at 1 µM: read-out: % Translocation (maximum translocation of PKCδ-GFP to the plasma membrane); for minimum effective concentration required to induce translocation of PKC-GFP to the membrane: tested at 200 and 1000 nM; for PKC activation dynamics (shape of translocation curve): Fig. 5c, d; for Emax at 1 µM: CHO-K1, 1000 nM compound
T1 construct: expressed in transfected cells; host or cells: CHO-k1 (Chinese hamster ovary, ATCC)
T1 sequence (Q05655 whole entry, the tested form may be a part): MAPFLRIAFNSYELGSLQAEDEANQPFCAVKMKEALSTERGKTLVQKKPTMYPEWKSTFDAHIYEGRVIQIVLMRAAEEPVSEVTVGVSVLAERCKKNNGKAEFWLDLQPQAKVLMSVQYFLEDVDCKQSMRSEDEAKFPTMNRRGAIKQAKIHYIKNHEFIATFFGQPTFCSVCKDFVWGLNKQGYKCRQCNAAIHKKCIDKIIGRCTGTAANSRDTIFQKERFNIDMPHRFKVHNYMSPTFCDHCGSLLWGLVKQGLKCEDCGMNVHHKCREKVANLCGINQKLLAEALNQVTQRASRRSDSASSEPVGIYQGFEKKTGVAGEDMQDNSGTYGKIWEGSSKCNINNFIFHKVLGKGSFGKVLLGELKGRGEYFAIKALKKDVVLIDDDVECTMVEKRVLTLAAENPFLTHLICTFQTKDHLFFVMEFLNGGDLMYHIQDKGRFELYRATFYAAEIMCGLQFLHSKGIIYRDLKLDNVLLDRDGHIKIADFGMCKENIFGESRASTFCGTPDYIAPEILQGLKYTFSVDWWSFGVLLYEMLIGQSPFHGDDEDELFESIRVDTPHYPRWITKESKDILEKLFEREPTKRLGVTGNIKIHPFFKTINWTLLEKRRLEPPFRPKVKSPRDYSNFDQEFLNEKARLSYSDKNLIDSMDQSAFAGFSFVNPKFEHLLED
Method: (§1) With a panel of compounds bearing diverse functionality at C13, we began to explore how these modifications affect PKC binding and biological function. Because an obvious prerequisite for PKC pathway involvement is binding to PKC, compounds were initially evaluated for PKC affinity in a cell-free competitive binding assay with tritiated phorbol dibutyrate ([^3H]-PDBu). Assays were performed with representative members of both the conventional (PKCα) and novel (PKCδ) PKC families. Subsequently, compounds were assayed for PKC isoform translocation in real time in living cells using an optical assay. Translocation to the plasma membrane is the hallmark of PKC activation[18],[57],[60] and therefore monitoring the subcellular localization of a PKCδ-GFP fusion protein via confocal microscopy offers a convenient method for determining whether a compound enters a cell and engages its PKC isoform target. Finally and of clinical significance, we also determined the effect of compounds on CD22 surface expression in vitro in NALM6 cells, an ALL cell line previously studied in connection with CD22-targeted CAR T cell therapy, and two additional lymphoma cell lines[11],[31],[65].
Scale bar represents 25 μm. Experiments performed in n = 3 biological replicates. b–d Cytosolic fluorescence normalized to t = 0 (time immediately prior to addition of compound to media) and plotted against time. Error bars excluded for clarity (data presented as the mean of n = 3 biological replicates). Individual curves with error bars included in Supplementary Information.
PKCδ-GFP Translocation Assay Protocol
Chinese hamster ovary factor K1 (CHO-k1, ATCC) cells were cultured in F-12 Kaighn’s media (Hyclone, 10% fetal bovine serum, 1% penicillin/streptomycin added, reffered to as F-12 +/+ below) at 37 ° C in an incubator (5% CO2). Cell cultures were maintained by splitting cells 1:3 when they reached ~75-100% confluence (every 2-3 days) as follows:
(Gibco) was used to remove the cells from the culture flask (T75, Falcon). 1 mL of the cell suspension was then added to 9 mL of fresh F-12 +/+ and the sample was sub-cultured until reaching confluence (~2-3 days).
Cells were counted using a Countess II Automated Cell Counter (Fisher). The cell suspension was diluted to 240,000 cells/mL with fresh F-12 +/+ and 2.5 mL of this diluted stock was added to one well in a 6-well plate. The cells were then cultured for 24 hours.
Cells were transfected with Lipofectamine 2000 reagent (Invitrogen) or DA 13:11 at a 10:1 charge […]
F-12 +/+ was aspirated and cells were washed with F-12 -/-. 2 mL of fresh F-12 -/- was then added to each well, taking care not to disturb adherent cells. For each well of CHO-k1 cells, 12.5 µL Lipofectamine 2000 reagent (Invitrogen) was added to 250 µL Opti-MEM reduced serum media (Invitrogen) in a polypropylene tube and incubated for 20 minutes at RT. Meanwhile, for each well, 4 µg of PKCδ-GFP pDNA and 250 µL Opti-MEM reduced serum media was added to a separate polypropylene tube. 250 µL of the Lipofectamine 2000 suspension was added to the DNA suspension and the solution incubated for 30 minutes at RT. 500 µL of the Lipofectamine/DNA suspension was added to the respective wells of the 6-well plate. The cells were then incubated at 37 ° C (5% CO2) for ~24 hrs.
F-12 +/+ was aspirated and cells were washed with F-12 -/-. 2.4 mL of fresh F-12 -/- was then added to each well, taking care not to disturb adherent cells. A 4 µg aliquot of PKCδ-GFP pDNA was added to PBS (pH 5.5, final volume 100 µL). 5.6 µL of DA 13:11 (2 mM stock in DMSO) was then added to the DNA solution, and the mixture was gently mixed (by flicking) for 20 seconds, at which point it was added directly to the respective wells of the 6-well plate.

PKCδ = target: T2, PKCδ (Homo sapiens, UniProt Q05655); assay: PKC competitive binding assay with [3H]-phorbol dibutyrate (PKCδ); settings: cell-free, competition with [3H]-PDBu, PS vesicles
T2 construct: purchased Invitrogen
T2 sequence (Q05655 whole entry): as the sequence (Q05655 whole entry, the tested form may be a part) above
Method: as §1
PKC Binding Assay Protocol […]
competition with 3H-phorbol-12,13-dibutyrate (3H-PDBu) as described below. This procedure entails a glass-fiber filtration method to determine bound radioligand.
Preparation of PKC binding assay buffer
To a 50 mL polypropylene tube was added Tris-HCl (pH 7.4, 1 M, 1 mL), KCl (1 M, 2 mL), CaCl2 (0.1 M, 30 μL), and bovine serum albumin (BSA, 40 mg, Sigma-Aldrich). This mixture was diluted to 20 mL with deionized H2O and mixed gently. The buffer was stored on ice until use. The final […]
Supplementary Table1. PKC binding assay buffer composition.
Preparation of phosphatidylserine (PS) vesicles
For every two assays, 3.5 mg phosphatidylserine (Avanti Polar Lipids, porcine, 25 mg/mL CHCl3 solution) was concentrated by removing chloroform under a stream of nitrogen followed by reduced pressure. The solid PS was suspended as vesicles in freshly prepared PKC binding assay buffer (3.5 mL) by sonicating six times for 30 sec, with a 30 sec rest between sonications (Branson Sonifier 250, power = 2, 50% duty cycle). The resulting milky cloudy mixture (1 mg/mL) was stored […]
Preparation of PKC isoform solution
Assay PKC was prepared by dissolving a 4 μg aliquot of the indicated recombinant human PKC isoform (Invitrogen) into 11.6 mL of PKC binding assay buffer (this amount is sufficient for two assays). The diluted PKC was stored on ice for immediate use. […]
μCi/mmol) was diluted 10-fold with DMSO. The resulting 500 nM stock solution was further diluted with DMSO to 30 nM.
Preparation of analog compound dilutions
Compound dilutions were prepared by serially diluting from a chosen "high" concentration by factors of 3 or 4. For each analog compound, seven concentrations were used to define the […]
To a polypropylene tube was added 3.3 mL of 1 mg/mL PS vesicles solution, 11 mL of PKC isoform solution, and 1.1 mL of 30 nM 3H-PDBu solution were added. The resulting solution was vortexed to mix and stored on ice.
PKC binding assay protocol
- Glass-fiber filters (Whatman GF/B) were prepared by soaking them in a solution of aqueous polyethyleneimine (10% by vol, 18 mL) in deionized water (600 mL) for ≥1h.
- 500 mL "rinsing buffer" of 20 mM Tris, pH 7.4 was cooled on ice for the duration of the incubation period and for the remainder of the assay.
Triplicate data points were obtained for each analog concentration. For each data point, 280 μL of "Master Mix" Solution and 20 μL of analog compound at a specified concentration were added to a polypropylene tube. Non-specific 3H-PDBu binding was assessed in triplicate by substitution […]
μM). Maximal 3H-PDBu binding was assessed in triplicate by substitution of the analog compound with 20 μL DMSO. The solutions were vortexed to mix, incubated at 37 °C for 10 min, and […]

Structure (SMILES): CCCCCC#CC(=O)O[C@H]1/C(=C/C(=O)OC)C[C@H]2C[C@H]([C@@H](C)O)OC(=O)C[C@H](O)C[C@@H]3C[C@H](OC(C)=O)C(C)(C)[C@](O)(C[C@@H]4C[C@H](O)C[C@H](/C=C/C(C)(C)[C@]1(O)O2)O4)O3 [SUW204]
- cytosolic PKC translocated to the plasma membrane (PKCδ-GFP fusion protein; 200 nM, at 20 min): ~ 25%
- Emax at 0.2 µM (PKCδ-GFP fusion protein; CHO-k1 cells, n = 3): 25%
- minimum effective concentration required to induce translocation of PKC-GFP to the membrane (PKCδ-GFP fusion protein; CHO-k1 cells): 200 nM
- Ki (PKCδ): 3.7 nM

Structure (SMILES): CCC/C=C/C=C/C(=O)O[C@H]1/C(=C/C(=O)OC)C[C@H]2C[C@H]([C@@H](C)O)OC(=O)C[C@H](O)C[C@@H]3C[C@H](OC(C)=O)C(C)(C)[C@](O)(C[C@@H]4C[C@@H](OC(C)=O)C[C@H](/C=C/C(C)(C)[C@]1(O)O2)O4)O3 [SUW207]
- Emax at 0.2 µM (PKCδ-GFP fusion protein; CHO-k1 cells, n = 3): 60%
- minimum effective concentration required to induce translocation of PKC-GFP to the membrane (PKCδ-GFP fusion protein; CHO-k1 cells): 200 nM
- Ki (PKCδ): 5.4 nM

Structure (SMILES): CCCC=CC=CC(=O)OC1C(=CC(=O)OC)CC2CC(C(C)O)OC(=O)CC(O)CC3CC(OC(C)=O)C(C)(C)C(O)(CC4CC(OC(=O)Nc5ccccc5)CC(C=CC(C)(C)C1(O)O2)O4)O3 (stereo not shown) [SUW208]
- activity in the PKC translocation assay at 200 nM (PKCδ-GFP fusion protein; 200 nM): effectively translocated PKC to the plasma membrane
- time required for translocation (PKCδ-GFP fusion protein; 200 nM): ~ 15 min
- Emax at 0.2 µM (PKCδ-GFP fusion protein; CHO-k1 cells, n = 3): 75%
- minimum effective concentration required to induce translocation of PKC-GFP to the membrane (PKCδ-GFP fusion protein; CHO-k1 cells): 200 nM
- PKC activation dynamics (shape of translocation curve) (PKCδ-GFP fusion protein): delayed activation patterns
- Ki (PKCδ): 4.7 nM

Structure (SMILES): CCCC=CC=CC(=O)OC1C(=CC(=O)OC)CC2CC(C(C)O)OC(=O)CC(O)CC3CC(OC(C)=O)C(C)(C)C(O)(CC4CC(OC(=O)CC56CC7CC(CC(C7)C5)C6)CC(C=CC(C)(C)C1(O)O2)O4)O3 (stereo not shown) [SUW209]
- activity in the PKC translocation assay at 200 nM (PKCδ-GFP fusion protein; 200 nM): inactive
- Emax at 1 µM (PKCδ-GFP fusion protein; CHO-k1 cells, n = 3): 60%
- minimum effective concentration required to induce translocation of PKC-GFP to the membrane (PKCδ-GFP fusion protein; CHO-k1 cells): 1000 nM
- Ki (PKCδ): 3.5 nM

Structure (SMILES): CCCC=CC=CC(=O)OC1C(=CC(=O)OC)CC2CC(C(C)O)OC(=O)CC(O)CC3CC(OC(C)=O)C(C)(C)C(O)(CC4CC(OC(=O)CCc5c[nH]c6ccccc56)CC(C=CC(C)(C)C1(O)O2)O4)O3 (stereo not shown) [SUW210]
- activity in the PKC translocation assay at 200 nM (PKCδ-GFP fusion protein; 200 nM): inactive
- Emax at 1 µM (PKCδ-GFP fusion protein; CHO-k1 cells, n = 3): 75%
- minimum effective concentration required to induce translocation of PKC-GFP to the membrane (PKCδ-GFP fusion protein; CHO-k1 cells): 1000 nM
- Ki (PKCδ): 7.3 nM

Structure (SMILES): CCCC=CC=CC(=O)OC1C(=CC(=O)OC)CC2CC(C(C)O)OC(=O)CC(O)CC3CC(OC(C)=O)C(C)(C)C(O)(CC4CC(=CC(=O)OCC)CC(C=CC(C)(C)C1(O)O2)O4)O3 (stereo not shown) [SUW217]
- Emax at 0.2 µM (PKCδ-GFP fusion protein; CHO-k1 cells, n = 3): 75%
- minimum effective concentration required to induce translocation of PKC-GFP to the membrane (PKCδ-GFP fusion protein; CHO-k1 cells): 200 nM
- Ki (PKCδ): 9.4 nM

Structure (SMILES): CCCC=CC=CC(=O)OC1C(=CC(=O)OC)CC2CC(C(C)O)OC(=O)CC(O)CC3CC(OC(C)=O)C(C)(C)C(O)(CC4CC(=CC(=O)OCC)CC(C=CC(C)(C)C1(O)O2)O4)O3 (stereo not shown) [SUW218]
- % Translocation (maximum translocation of PKCδ-GFP to the plasma membrane) (PKCδ-GFP fusion protein; 200 nM compound, CHO-k1 cells, n = 3): 55%
- minimum effective concentration required to induce translocation of PKC-GFP to the membrane (PKCδ-GFP fusion protein; CHO-k1 cells): 200 nM
- PKC activation dynamics (shape of translocation curve) (PKCδ-GFP fusion protein): more sustained linear activation dynamics
- Ki (PKCδ): 6.6 nM
